Experimental data from paper PMC9555642 (PLoS ONE, 2022).

Columns and labels:
[1] = target: T1, cyclooxygenase 2 (COX2) (Homo sapiens, UniProt P35354); experiment: Secondary pharmacology panel (Eurofins); assay type: biochemical
T1 construct: purchased Eurofins Pharma Discovery Services
T1 sequence (P35354 18-604): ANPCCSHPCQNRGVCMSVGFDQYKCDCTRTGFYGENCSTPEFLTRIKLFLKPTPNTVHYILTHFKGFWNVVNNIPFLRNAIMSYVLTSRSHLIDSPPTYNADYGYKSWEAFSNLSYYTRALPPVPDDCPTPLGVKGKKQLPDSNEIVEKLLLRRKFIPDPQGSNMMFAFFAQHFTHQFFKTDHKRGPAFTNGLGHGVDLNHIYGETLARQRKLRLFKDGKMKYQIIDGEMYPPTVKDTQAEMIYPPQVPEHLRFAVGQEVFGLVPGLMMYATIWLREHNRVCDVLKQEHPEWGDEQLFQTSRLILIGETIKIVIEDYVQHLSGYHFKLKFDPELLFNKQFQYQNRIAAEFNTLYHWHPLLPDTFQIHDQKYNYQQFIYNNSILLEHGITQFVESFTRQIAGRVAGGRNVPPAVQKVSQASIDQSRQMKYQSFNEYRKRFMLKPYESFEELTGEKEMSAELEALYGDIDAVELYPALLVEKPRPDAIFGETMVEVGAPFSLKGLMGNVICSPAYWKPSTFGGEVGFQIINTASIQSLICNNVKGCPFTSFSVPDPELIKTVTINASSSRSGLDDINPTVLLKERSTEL
Procedure: Second pharmacology screening was performed at Eurofins Pharma Discovery Services in a panel of 190 in vitro radioligand binding and enzyme assays covering a diverse set of enzymes, receptors, ion channels, and transporters.

[2] = system: COPD HBEC ALI cultures; experiment: AB/PAS staining and quantification of cellular features from IHC sections, TNF challenge; assay type: cell-based, human
Procedure: Eight days post-treatment, HBEC ALI-cultures were fixed in 4% paraformaldehyde for fifteen minutes and washed three times in PBS. Dehydration in ethanol and xylene followed by paraffin (Merck, New Jersey, USA) infiltration was done with a short program for biopsies (1 hour 55 minutes) on a Microm STP 120 Spin Tissue Processor (Thermo Fisher Scientific). Cell layers were embedded in paraffin and 4 μm thick sections were made using a Leica RM2165 microtome (Leica, Wetzlar, Germany). Alcian Blue/Periodic Acid-Schiff (AB/PAS) with Haematoxylin staining were performed using standard protocols on a Leica ST5020. After staining, the sections were dehydrated in ethanol and xylene, mounted with Pertex mounting medium (Histolab, Göteborg, Sweden) and scanned with a Aperio Scanscope slide scanner (Leica Biosystems, Buffalo Grove, USA).
IHC images were analyzed in HALO v3.1 (Indica Labs). For all analyses, images were annotated manually to exclude out of focus and damaged areas, and a random forest classifier was applied to intact areas of the sections to detect epithelial areas. All following analyses were done in epithelial areas only. For goblet cell counting, algorithm CytoNuclear 2.0.9 was used to segment cells based on nuclear staining and categorize them as AB/PAS (mucin) positive and negative cells based on cytoplasmic AB staining. Goblet cell counting was represented as the percentage of AB positive cells of total cells.
To measure epithelial thickness, the apical and basal sides of the epithelium in the sections were manually delineated using a pen annotation tool. Distance between paired apical and basal annotations was measured every 10 μm along the epithelium, and recorded in sequence as epithelial thickness.
To measure intraepithelial and intercellular AB staining, algorithm Area Quantification v2.1.7 was used. Two thresholds were applied to capture AB staining: a lower one to detect all AB staining in both goblet cells and intercellular areas, and a higher one to detect the stronger AB staining inside goblet cells only. Intercellular AB area was calculated by subtracting goblet AB staining (higher threshold) from total AB staining (by lower threshold).

[3] = target: T2, HDAC6 (Homo sapiens, UniProt Q9UBN7); experiment: HDAC enzymatic activity (Eurofins); assay type: biochemical; conditions: Class IIB; ACY-1083 mean of two separate measurements, Ricolinostat and Tubastatin A one measurement
T2 sequence (Q9UBN7 1-1215): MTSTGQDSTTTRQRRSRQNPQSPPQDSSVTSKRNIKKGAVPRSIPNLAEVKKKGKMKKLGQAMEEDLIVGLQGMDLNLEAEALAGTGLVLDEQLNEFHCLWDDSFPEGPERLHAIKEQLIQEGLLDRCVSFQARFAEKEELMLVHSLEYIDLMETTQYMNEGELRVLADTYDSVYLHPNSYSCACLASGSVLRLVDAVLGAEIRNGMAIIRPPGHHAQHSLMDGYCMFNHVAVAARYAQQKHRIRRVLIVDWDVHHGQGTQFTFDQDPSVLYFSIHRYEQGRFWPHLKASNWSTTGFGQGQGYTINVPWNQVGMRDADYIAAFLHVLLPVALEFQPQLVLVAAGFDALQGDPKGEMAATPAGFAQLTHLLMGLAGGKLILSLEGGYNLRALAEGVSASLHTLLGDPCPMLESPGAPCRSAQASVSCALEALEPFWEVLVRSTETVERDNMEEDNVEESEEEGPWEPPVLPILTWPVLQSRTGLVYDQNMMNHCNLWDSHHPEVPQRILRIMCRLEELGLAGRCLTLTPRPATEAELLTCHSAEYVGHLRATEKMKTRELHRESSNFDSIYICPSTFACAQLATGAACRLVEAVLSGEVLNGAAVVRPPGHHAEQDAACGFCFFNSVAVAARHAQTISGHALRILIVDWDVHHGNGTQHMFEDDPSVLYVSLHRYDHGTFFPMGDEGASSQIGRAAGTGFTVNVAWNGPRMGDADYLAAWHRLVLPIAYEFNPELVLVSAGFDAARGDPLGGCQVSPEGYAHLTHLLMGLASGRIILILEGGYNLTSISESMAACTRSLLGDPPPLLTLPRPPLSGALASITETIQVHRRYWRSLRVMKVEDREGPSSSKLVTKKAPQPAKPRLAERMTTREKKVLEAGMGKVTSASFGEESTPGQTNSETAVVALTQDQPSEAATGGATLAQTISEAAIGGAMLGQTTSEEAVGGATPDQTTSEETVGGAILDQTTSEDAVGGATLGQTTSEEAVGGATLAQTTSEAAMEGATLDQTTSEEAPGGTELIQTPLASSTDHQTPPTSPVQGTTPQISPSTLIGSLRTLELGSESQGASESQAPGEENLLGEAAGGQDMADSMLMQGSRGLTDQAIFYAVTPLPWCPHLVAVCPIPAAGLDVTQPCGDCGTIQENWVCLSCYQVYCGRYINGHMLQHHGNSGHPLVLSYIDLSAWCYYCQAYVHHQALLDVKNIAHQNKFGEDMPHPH

[4] = system: healthy HBEC at ALI cultures; experiment: TEER in healthy HBEC ALI cultures, TNF challenge; assay type: cell-based, human; conditions: TNF-challenged healthy HBEC, p = 0.0187
[5] = target: T3, HDAC3 (Homo sapiens, UniProt O15379); experiment: HDAC enzymatic activity (Eurofins); assay type: biochemical; conditions: Class I; ACY-1083 mean of two separate measurements, Ricolinostat and Tubastatin A one measurement
T3 construct: purchased Eurofins Pharma Discovery Services 2083
T3 sequence (O15379 whole entry): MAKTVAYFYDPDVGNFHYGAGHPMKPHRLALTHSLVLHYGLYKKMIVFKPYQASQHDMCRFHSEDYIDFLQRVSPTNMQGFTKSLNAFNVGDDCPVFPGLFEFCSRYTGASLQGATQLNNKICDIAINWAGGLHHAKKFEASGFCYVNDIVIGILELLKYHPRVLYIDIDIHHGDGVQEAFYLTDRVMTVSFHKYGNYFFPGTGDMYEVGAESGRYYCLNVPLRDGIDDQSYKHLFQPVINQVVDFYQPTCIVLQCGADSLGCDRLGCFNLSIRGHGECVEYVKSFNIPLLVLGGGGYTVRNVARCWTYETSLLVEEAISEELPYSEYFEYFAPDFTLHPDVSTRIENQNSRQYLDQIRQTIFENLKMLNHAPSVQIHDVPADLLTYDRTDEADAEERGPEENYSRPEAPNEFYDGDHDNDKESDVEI
T3 sequence (Q9Y618 395-489 partner limits assumed): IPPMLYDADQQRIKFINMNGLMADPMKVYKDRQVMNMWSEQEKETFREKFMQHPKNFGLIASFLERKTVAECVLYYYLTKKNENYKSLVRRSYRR

ACY-1083
IC50 [1]: 6.48 µM | intraepithelial and intercellular AB area ([2]; TNF 20 ng/ml + ACY-1083, p<0.0001): reduced to the no-TNF level | percentage of goblet cells ([2]; TNF 20 ng/ml + ACY-1083, vs no-TNF DMSO control or TNF DMSO culture): increased but did not differ significantly | epithelial thickness variation (variance in height) ([2]; TNF-challenged wells, four donors, p<0.001): smaller | goblet cell percentage ([2]; only ACY-1083 vs no-TNF DMSO): No difference | IC50 [3]: < 0.01 µM | TEER [4]: reversed this decrease | IC50 [5]: > 87.5 µM
